Read-outs that look alike come from different tables or passages of the source.
Key:
Assay in all cases: biochemical
Parameters in all cases: species or system mixed lysate of K562, MV4-11, THP-1, NCI-H1155
[1] = target: Calcium/calmodulin-dependent protein kinase kinase 2 ; CAMKK2 ; Q96RR4 (Homo sapiens, UniProt Q96RR4)
[2] = target: Cyclin-dependent kinase 13 ; CDK13 ; Q14004 (Homo sapiens, UniProt Q14004)
[3] = target: Cyclin-dependent kinase 2 ; CDK2 ; P24941 (Homo sapiens, UniProt P24941)
[4] = target: Cyclin-dependent kinase 4 ; CDK4 ; P11802 (Homo sapiens, UniProt P11802)
[5] = target: Cyclin-dependent kinase 8 ; CDK8 ; P49336 (Homo sapiens, UniProt P49336)
[6] = target: T1, Cyclin-dependent kinase-like 5 ; CDKL5 ; O76039 (Homo sapiens, UniProt O76039)
T1 sequence (O76039 1-960): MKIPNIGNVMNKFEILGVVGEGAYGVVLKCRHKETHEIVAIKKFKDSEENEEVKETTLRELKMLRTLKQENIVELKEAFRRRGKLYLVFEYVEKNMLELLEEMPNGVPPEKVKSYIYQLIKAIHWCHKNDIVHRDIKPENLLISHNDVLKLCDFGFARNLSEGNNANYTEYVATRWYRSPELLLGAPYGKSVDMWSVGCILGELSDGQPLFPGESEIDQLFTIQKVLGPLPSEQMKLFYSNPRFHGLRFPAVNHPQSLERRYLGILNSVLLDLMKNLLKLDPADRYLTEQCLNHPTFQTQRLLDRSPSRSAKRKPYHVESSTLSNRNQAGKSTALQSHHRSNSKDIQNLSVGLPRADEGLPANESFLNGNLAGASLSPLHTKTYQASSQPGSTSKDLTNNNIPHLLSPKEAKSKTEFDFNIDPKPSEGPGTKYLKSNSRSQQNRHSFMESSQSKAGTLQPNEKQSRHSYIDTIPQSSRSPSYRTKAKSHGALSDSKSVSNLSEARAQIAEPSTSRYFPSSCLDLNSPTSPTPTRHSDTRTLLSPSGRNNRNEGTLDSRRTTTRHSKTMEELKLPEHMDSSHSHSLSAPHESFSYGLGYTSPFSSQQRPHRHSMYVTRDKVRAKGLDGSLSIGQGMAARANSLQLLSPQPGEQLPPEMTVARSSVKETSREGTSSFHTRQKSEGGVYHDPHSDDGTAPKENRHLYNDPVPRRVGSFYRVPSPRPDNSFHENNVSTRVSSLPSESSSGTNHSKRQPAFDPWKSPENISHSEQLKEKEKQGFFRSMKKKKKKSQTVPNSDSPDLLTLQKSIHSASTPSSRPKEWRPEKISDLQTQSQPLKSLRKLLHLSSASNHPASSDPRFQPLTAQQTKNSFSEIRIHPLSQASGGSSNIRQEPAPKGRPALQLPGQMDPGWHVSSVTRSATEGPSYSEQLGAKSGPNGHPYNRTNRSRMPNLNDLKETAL

[7] = target: T2, Discoidin domain-containing receptor 2 ; DDR2 ; Q16832 (Homo sapiens, UniProt Q16832)
T2 sequence (Q16832 1-855): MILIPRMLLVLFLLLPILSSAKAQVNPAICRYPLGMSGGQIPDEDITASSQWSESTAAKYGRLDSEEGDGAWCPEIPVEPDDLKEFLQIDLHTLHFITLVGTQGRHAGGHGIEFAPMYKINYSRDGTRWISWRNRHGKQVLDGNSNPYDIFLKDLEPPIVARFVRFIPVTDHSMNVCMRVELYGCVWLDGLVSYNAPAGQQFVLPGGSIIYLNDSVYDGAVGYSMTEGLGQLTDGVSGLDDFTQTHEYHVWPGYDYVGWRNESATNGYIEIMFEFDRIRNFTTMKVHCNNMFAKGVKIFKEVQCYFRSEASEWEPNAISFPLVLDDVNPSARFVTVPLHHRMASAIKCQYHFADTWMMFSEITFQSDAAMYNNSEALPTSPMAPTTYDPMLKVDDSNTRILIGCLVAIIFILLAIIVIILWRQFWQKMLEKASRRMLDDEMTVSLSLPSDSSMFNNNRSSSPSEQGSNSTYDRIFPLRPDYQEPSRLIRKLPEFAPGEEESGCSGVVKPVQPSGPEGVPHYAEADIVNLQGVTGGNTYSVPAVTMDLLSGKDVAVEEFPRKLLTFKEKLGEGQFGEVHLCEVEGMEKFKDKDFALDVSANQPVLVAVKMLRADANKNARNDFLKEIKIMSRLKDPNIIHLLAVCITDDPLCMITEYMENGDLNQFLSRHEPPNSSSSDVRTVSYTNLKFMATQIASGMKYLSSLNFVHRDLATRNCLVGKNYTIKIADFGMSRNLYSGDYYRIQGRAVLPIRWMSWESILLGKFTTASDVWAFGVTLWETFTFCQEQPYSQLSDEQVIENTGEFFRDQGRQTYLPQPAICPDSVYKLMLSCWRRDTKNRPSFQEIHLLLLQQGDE

[8] = target: High affinity nerve growth factor receptor ; NTRK1 ; P04629 (Homo sapiens, UniProt P04629)
[9] = target: Isoform 2 of Cyclin-dependent kinase 17 ; CDK17 ; Q00537-2 (Homo sapiens, UniProt Q00537)
[10] = read-out: BAY-1143572 (10 µM) / %Intensity relative to DMSO
[11] = read-out: BAY-1251152 (10 µM) / %Intensity relative to DMSO

Chain of High affinity nerve growth factor receptor ; NTRK1 ; P04629 (P04629 whole entry, canonical isoform): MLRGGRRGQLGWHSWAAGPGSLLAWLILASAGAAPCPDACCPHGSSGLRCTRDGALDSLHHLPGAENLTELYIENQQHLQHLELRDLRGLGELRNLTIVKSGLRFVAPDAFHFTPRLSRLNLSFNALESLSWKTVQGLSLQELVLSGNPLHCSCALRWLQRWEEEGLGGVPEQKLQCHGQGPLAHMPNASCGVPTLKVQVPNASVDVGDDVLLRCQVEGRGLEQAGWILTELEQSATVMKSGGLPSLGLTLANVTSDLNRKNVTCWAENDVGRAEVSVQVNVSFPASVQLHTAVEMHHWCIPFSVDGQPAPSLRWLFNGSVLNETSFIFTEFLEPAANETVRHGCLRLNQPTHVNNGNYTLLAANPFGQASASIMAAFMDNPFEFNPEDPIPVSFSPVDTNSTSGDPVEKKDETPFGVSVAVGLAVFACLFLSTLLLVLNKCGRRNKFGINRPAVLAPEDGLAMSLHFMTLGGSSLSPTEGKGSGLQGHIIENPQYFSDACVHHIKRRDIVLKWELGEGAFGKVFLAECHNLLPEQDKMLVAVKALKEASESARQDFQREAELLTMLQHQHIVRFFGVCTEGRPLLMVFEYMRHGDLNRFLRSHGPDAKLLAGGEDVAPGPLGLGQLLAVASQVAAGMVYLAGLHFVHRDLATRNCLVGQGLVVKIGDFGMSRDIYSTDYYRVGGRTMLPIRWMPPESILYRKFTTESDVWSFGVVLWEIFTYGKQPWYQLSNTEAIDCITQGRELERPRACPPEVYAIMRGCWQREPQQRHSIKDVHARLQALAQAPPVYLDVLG
Chain of Cyclin-dependent kinase 13 ; CDK13 ; Q14004 (Q14004 whole entry, one chain of several): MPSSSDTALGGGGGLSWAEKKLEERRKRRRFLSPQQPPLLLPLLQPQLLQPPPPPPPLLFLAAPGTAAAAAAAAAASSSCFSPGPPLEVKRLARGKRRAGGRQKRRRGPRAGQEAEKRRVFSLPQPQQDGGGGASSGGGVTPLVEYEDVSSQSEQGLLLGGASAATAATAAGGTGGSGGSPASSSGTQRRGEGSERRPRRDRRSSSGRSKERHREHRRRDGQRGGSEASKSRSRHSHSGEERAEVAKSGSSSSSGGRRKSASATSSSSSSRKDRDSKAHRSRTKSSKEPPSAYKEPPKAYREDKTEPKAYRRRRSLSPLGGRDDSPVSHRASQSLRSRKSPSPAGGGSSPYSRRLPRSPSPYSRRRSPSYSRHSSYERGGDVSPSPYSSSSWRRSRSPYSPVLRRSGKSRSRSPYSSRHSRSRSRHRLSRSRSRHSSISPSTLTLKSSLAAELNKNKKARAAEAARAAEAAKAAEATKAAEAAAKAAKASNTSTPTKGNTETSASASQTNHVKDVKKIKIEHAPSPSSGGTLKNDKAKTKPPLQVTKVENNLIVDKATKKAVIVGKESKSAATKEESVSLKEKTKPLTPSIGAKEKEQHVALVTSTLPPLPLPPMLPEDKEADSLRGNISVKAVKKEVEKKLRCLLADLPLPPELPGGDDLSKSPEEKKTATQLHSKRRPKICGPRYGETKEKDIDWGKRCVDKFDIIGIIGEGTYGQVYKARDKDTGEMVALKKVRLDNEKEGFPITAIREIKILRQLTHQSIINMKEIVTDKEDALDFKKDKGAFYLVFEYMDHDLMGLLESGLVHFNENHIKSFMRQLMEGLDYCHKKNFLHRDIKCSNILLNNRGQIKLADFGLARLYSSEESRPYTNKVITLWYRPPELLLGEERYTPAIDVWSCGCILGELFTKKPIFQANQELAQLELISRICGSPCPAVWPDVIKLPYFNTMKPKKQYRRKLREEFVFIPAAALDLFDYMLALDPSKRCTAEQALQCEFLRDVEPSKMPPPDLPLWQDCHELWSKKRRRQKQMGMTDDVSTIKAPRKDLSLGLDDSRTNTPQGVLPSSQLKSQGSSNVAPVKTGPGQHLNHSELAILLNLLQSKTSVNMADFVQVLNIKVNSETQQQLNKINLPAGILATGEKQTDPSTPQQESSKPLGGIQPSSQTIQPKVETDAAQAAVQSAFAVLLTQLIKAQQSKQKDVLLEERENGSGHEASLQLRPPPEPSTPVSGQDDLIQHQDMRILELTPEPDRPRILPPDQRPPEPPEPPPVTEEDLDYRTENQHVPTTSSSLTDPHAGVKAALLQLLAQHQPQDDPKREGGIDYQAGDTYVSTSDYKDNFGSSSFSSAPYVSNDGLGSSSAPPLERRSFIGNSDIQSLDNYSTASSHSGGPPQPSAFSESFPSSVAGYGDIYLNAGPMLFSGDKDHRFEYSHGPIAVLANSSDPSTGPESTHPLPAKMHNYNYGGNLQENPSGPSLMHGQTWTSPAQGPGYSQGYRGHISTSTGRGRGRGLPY
Chain of Isoform 2 of Cyclin-dependent kinase 17 ; CDK17 ; Q00537-2 (Q00537 whole entry, canonical isoform, one chain of several): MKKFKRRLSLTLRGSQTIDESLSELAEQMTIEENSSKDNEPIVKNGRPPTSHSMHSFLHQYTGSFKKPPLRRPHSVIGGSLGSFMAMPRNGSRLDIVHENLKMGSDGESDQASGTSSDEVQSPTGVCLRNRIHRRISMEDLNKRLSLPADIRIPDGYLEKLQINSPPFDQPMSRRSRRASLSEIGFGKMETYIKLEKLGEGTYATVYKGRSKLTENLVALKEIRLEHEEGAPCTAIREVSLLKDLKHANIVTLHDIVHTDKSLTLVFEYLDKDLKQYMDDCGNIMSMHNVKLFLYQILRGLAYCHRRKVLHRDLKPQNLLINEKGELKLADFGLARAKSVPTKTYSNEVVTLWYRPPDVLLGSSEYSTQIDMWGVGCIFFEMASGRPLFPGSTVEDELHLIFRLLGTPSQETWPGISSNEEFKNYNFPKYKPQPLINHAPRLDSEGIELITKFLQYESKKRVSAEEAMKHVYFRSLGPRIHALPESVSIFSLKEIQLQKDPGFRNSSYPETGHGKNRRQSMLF
Chain of Calcium/calmodulin-dependent protein kinase kinase 2 ; CAMKK2 ; Q96RR4 (Q96RR4 whole entry, one chain of several): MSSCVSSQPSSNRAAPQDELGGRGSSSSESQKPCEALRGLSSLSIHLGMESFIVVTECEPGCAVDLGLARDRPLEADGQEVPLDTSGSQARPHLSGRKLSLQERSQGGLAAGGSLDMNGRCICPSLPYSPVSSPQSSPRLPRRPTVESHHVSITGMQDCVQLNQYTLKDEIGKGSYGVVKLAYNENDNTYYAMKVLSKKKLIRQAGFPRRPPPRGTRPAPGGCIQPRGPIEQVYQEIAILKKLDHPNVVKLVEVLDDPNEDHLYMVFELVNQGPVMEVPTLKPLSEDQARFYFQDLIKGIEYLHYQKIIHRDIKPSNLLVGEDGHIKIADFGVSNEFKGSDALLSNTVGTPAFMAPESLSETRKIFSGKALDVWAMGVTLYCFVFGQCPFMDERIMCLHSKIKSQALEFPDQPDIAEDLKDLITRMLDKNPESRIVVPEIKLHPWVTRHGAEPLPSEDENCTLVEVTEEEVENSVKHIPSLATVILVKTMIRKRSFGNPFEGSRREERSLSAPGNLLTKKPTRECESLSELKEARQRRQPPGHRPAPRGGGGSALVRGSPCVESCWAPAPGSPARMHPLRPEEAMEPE
Chain of Cyclin-dependent kinase 4 ; CDK4 ; P11802 (P11802 whole entry, one chain of several): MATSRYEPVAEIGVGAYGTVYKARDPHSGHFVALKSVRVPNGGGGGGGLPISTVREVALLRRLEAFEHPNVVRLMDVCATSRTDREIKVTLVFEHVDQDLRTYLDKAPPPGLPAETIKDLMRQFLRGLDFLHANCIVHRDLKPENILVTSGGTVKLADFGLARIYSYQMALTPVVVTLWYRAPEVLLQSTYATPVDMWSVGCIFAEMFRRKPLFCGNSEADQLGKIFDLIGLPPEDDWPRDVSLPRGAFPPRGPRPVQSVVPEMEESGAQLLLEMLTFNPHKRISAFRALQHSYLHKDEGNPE
Chain of Cyclin-dependent kinase 8 ; CDK8 ; P49336 (P49336 whole entry, one chain of several): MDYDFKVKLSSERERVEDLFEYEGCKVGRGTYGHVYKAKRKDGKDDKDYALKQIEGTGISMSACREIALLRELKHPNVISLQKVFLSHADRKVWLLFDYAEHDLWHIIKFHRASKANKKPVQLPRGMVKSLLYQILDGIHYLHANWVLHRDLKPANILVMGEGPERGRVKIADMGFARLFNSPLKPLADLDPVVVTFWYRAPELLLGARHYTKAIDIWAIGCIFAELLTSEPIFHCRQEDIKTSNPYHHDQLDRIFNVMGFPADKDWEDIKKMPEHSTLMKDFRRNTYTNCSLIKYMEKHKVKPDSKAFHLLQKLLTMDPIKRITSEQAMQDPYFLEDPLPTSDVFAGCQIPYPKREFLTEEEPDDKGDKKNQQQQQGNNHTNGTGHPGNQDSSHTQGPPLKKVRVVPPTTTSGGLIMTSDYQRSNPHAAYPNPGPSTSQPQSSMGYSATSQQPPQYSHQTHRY

remaining activity at 10 µM [1, 10] [%] | remaining activity at 10 µM [2, 10] [%] | remaining activity at 10 µM [3, 10] [%] | remaining activity at 10 µM [4, 10] [%] | remaining activity at 10 µM [5, 10] [%] | remaining activity at 10 µM [6, 10] [%] | remaining activity at 10 µM [7, 10] [%] | remaining activity at 10 µM [8, 10] [%] | remaining activity at 10 µM [9, 10] [%] | remaining activity at 10 µM [1, 11] [%] | remaining activity at 10 µM [2, 11] [%] | remaining activity at 10 µM [3, 11] [%] | remaining activity at 10 µM [4, 11] [%] | remaining activity at 10 µM [5, 11] [%] | remaining activity at 10 µM [6, 11] [%] | remaining activity at 10 µM [7, 11] [%] | remaining activity at 10 µM [8, 11] [%] | remaining activity at 10 µM [9, 11] [%] | SMILES
50.1 | 89.2 | 31.4 | 133 | 114 | 27.1 | 72.3 | 106 | 66.1 | – | – | – | – | – | – | – | – | – | COc1cc(F)ccc1-c1ncnc(Nc2cccc(C[S@](C)(=N)=O)c2)n1 [BAY-1143572]
– | – | – | – | – | – | – | – | – | 29.2 | 58.8 | 34.1 | 121 | 116 | 78.6 | 38.5 | 26.5 | 49.4 | COc1cc(F)ccc1-c1cc(Nc2cc(CS(C)(=N)=O)ccn2)ncc1F (stereo not drawn) [BAY-1251152]

— article doi:10.1101/2024.08.13.607785v1 (biorxiv, 2024)
